Test results published in patent US12516049B2, “Sulfonylurea ring substituted monocyclic β-lactam antibiotics” (priority 2019, dated 2026).
≈ marks a conversion by molar mass, not a printed value.

Tests used:
[1] = test system: Enterobacter cloacae ATCC BAA-1143 (AmpC); assay: MIC, micro-liquid dilution (CLSI); assay type: cell-based; conditions: ATCCBAA1143, E. cloacae ATCC BAA-1143, Class C (AmpC), 20-24 h, 37° C.
Protocol: (§1) Three strains of Klebsiella pneumonia, ATCC BAA-205 (TEM-1/SHV-1/SHV-12), ATCC BAA-1705 (KPC-2), ATCC BAA-2470 (NDM-1), Enterobacter cloacae ATCC BAA-1143 (AmpC), two strains of Escherichia coli ATCC BAA-2523 (OXA-48), ATCC 25922 were used to determine the minimum inhibitory concentration (MIC) of each of the compounds by micro-liquid dilution method according to the Institute of Clinical and Laboratory Standard (CLSI) requirements. […]. The plate was placed upside down at 37° C. and the MIC value was read after 20-24 h of incubation, and the lowest drug concentration that inhibited the growth of bacteria was set as MIC. Colony-Forming Units (CFU) refer to the total number of bacterial colonies per unit volume.

[2] = test system: Escherichia coli ATCC 25922; assay: MIC, micro-liquid dilution (CLSI); assay type: cell-based; conditions: ATCC25922, E. coli ATCC 25922, 20-24 h, 37° C.
Protocol: as §1

[3] = test system: Escherichia coli ATCC BAA-2523 (OXA-48); assay: MIC, micro-liquid dilution (CLSI); assay type: cell-based; conditions: ATCCBAA2523, E. coli ATCC BAA-2523, Class D (OXA-48), 20-24 h, 37° C., read-out: MIC
Protocol: as §1

[4] = test system: Klebsiella pneumonia ATCC BAA-1705 (KPC-2); assay: MIC, micro-liquid dilution (CLSI); assay type: cell-based; conditions: Klebsiella pneumoniae, ATCCBAA1705; K. pneumonia ATCC BAA-1705, Class A (KPC-2); 20-24 h, 37° C.
Protocol: as §1

[5] = test system: Klebsiella pneumonia ATCC BAA-205 (TEM-1/SHV-1/SHV-12); assay: MIC, micro-liquid dilution (CLSI); assay type: cell-based; conditions: Klebsiella pneumoniae, ATCCBAA205; K. pneumonia ATCC BAA-205, Class A (TEM-1/SHV-1/SHV-12); 20-24 h, 37° C.
Protocol: as §1

[6] = test system: Klebsiella pneumonia ATCC BAA-2470 (NDM-1); assay: MIC, micro-liquid dilution (CLSI); assay type: cell-based; conditions: Klebsiella pneumoniae, ATCCBAA2470; K. pneumonia ATCC BAA-2470, Class B (NDM-1); 20-24 h, 37° C.
Protocol: as §1

E. coli ATCC-25922 = assay: Mouse thigh muscle model, E. coli ATCC-25922; assay type: in vivo; conditions: immunosuppressed female CD-1 mice; E. coli ATCC-25922 1.36E+06 CFU/mouse; 100 mg/kg subcutaneously at 2, 4, 6, 8 h after infection; end point 10 h
Protocol: 9 female CD-1 mice were divided into 3 cages, 3 mice per cage, and were injected intraperitoneally with immunosuppressant cyclophosphamide (150 mg/kg). 24 hours later, 3 cages of mice were injected intraperitoneally again with immunosuppressant cyclophosphamide (100 mg/kg). The strain E. coli ATCC-25922 was recovered on an MHA plate. The recovered colonies were picked and dissolved in saline to prepare E. coli ATCC-25922 bacterial solution with a concentration of 1.36E+07 CFU/mL for use in mouse thigh muscle infection. The amount of bacterial solution injected into the thigh muscle of the experimental mice was 100 μL/mouse, that is, the inoculation amount was 1.36E+06 CFU/mouse. 2 h after infection, the thigh muscle tissue of the mice in control group was taken and placed in 10 mL saline, homogenized, and dotted on a plate with gradient dilution. The specific administration of mice was as follows: (1) 2 h after infection: At the end point of 2 h infection, the thigh muscle tissue of the mice in the first cage was taken and placed in 10 mL saline, homogenized, and dotted on a plate with gradient dilution, two duplications for each mouse. The amount of bacteria loaded in the thigh muscle tissue of the mouse was counted. […] The amount of bacteria loaded in the thigh muscle tissue of the mouse was counted, and the experimental results were sorted and shown in Table 4.

## Nc1nc(/C(=N/OC2(C(=O)O)CC2)C(=O)N[C@@H]2C(=O)N(S(=O)(=O)O)[C@@H]2CN2CCNS2(=O)=O)cs1 [Compound 1]
[1]
  MIC: 1 µg/mL (≈ 1.81 µM)
[2]
  MIC: 1 µg/mL (≈ 1.81 µM)
[3]
  MIC: 0.5 µg/mL (≈ 0.903 µM)
[4]
  MIC: 0.5 µg/mL (≈ 0.903 µM)
[5]
  MIC: 0.5 µg/mL (≈ 0.903 µM)
[6]
  MIC: 0.5 µg/mL (≈ 0.903 µM)
E. coli ATCC-25922
  Average CFU of the mouse (amount of bacteria loaded in thigh muscle tissue): 2.25E+05 CFU
